This is an account of results in US9050345B2, “Pyrrolotriazines as potassium ion channel inhibitors” (BRISTOL-MYERS SQUIBB COMPANY, priority 2013, dated 2015).

In the first assay the target is T1, human KV 1.5 (IKur) (Homo sapiens, UniProt P22460).
T1 construct: expressed in transfected cells
T1 sequence (P22460 whole entry): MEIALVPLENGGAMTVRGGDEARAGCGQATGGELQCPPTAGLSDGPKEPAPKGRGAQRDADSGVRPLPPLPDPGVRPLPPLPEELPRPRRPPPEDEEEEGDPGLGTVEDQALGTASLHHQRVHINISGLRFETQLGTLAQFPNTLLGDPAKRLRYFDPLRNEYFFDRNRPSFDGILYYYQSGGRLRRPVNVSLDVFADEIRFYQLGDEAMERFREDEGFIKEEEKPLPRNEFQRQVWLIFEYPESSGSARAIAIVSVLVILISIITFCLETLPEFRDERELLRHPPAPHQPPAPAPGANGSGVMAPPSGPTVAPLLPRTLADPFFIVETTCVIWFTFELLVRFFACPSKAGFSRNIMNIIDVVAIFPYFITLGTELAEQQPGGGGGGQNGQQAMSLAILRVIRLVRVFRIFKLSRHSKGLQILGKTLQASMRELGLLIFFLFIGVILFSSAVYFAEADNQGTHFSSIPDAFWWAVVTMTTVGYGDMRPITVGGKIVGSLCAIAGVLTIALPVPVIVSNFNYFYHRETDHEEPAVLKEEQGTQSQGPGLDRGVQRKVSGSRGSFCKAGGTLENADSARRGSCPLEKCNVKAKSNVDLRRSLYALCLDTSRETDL
The assay can be described thus: block of IKur current in patch clamped L-929 cells expressing human Kv1.5. The settings on record: 0.3 μM; patch clamped mammalian L-929 cells stably expressing human Kv1.5. Format: cell-based. Background: Patch clamp records ionic current or voltage across a cell membrane.
`CC(Nc1nc(-c2cncc(S(N)(=O)=O)c2)nn2ccc(-c3ccccc3)c12)c1ccc(F)cc1` (centres unmarked) [Example 77, 5-(4-(1-(4-fluorophenyl)ethylamino)-5-phenylpyrrolo[1,2-f] [1,2,4]triazin-2-yl)pyridine-3-sulfonamide]: the “KV1_5% Inh L929 @0.3 μM” value was 95.70%.

The assay is the same for the next values; noted with them: L929, 0.3 μM; patch clamped mammalian L-929 cells stably expressing human Kv1.5; read-out: KV1_5% Inh L929 @0.3 μM.
For the molecule `Nc1cncc(-c2nc(NCc3ccccn3)c3c(-c4cncc(N)c4)ccn3n2)c1` [Example 68, 5,5′-(4-(pyridin-2-ylmethylamino)pyrrolo [1,2-f][1,2,4]triazine-2-,5-diyl)dipyridin-3-amine], the inhibition at 0.3 µM is 28.1%.
In the case of `c1ccc(CNc2nc(-c3cncc(-c4nnn[nH]4)c3)nn3ccc(-c4ccccc4)c23)cc1` [Example 11, 2-(5-(1H-Tetrazol-5-yl)pyridin-3-yl)-N-benzyl-5-phenylpyrrolo[1,2-f][1,2,4]triazin-4-amine], the inhibition at 0.3 µM is 93.4%.
With `O=C(c1cncc(-c2nc(NCc3ccccc3)c3c(-c4ccccc4)ccn3n2)c1)N1CCOCC1` [Example 84, (5-(4-(benzylamino)-5-phenylpyrrolo [1,2-f][1,2,4]triazin-2-yl)pyridin-3-yl)(morpholino) methanone], the inhibition at 0.3 µM worked out at 85.9%.
As to `Nc1cncc(-c2nc(NCc3cnccn3)c3c(-c4ccccc4)ccn3n2)c1` [Example 161, 2-(5-aminopyridin-3-yl)-5-phenyl-N-(pyrazin-2-ylmethyl)pyrrolo[1,2-f] [1,2,4]triazin-4-amine], the inhibition at 0.3 µM is 97.9%.
In the case of `NS(=O)(=O)c1cncc(-c2nc(NC3CCCc4cccnc43)c3c(-c4ccccc4)ccn3n2)c1` (centres unmarked) [Example 170, 5-(5-phenyl-4-((5,6,7,8-tetrahydroquinolin-8-yl)amino)pyrrolo[2,1-f] [1,2,4]triazin-2-yl)pyridine-3-sulfonamide], the inhibition at 0.3 µM was 96.4%.
With `COc1ncc(-c2nc(NCc3cnccn3)c3c(-c4ccccc4)ccn3n2)cc1S(N)(=O)=O` [Example 137, 2-methoxy-5-(5-phenyl-4-((pyrazin-2-ylmethyl)amino)pyrrolo [2,1-f][1,2,4]triazin-2-yl)pyridine-3-sulfonamide], the inhibition at 0.3 µM stood at 82.9%.
For `NS(=O)(=O)c1cncc(-c2nc(NCc3ccccn3)c3c(-c4ccccc4)ccn3n2)n1` [Example 127, 6-(5-phenyl-4-(pyridin-2-ylmethylamino)pyrrolo[1,2-f][1,2,4]triazin-2-yl)pyrazine-2-sulfonamide], the inhibition at 0.3 µM is 99.3%.
As to `COc1cccc(CNc2nc(-c3cncc(S(N)(=O)=O)c3)nn3ccc(-c4ccccc4)c23)n1` [Example 140, 5-(4-(((6-methoxypyridin-2-yl)methyl)amino)-5-phenylpyrrolo [2,1-f][1,2,4]triazin-2-yl)pyridine-3-sulfonamide], the inhibition at 0.3 µM was found to be 99.1%.
`Cc1cc(CNc2nc(-c3cncc(S(N)(=O)=O)c3)nn3ccc(-c4ccccc4)c23)no1` [Example 176, 5-(4-(((5-methylisoxazol-3-yl)methyl)amino)-5-phenylpyrrolo [2,1-f][1,2,4]triazin-2-yl)pyridine-3-sulfonamide]: the inhibition at 0.3 µM came out at 96%.
`NC(=O)CC(=O)Nc1cncc(-c2nc(NCc3ccccc3)c3c(-c4ccccc4)ccn3n2)c1` [Example 4, N1-(5-(4-(Benzylamino)-5-phenylpyrrolo[1,2-f][1,2,4]triazin-2-yl)pyridin-3-yl)malonamide]: the inhibition at 0.3 µM is 97.3%.
As for `NS(=O)(=O)c1cncc(-c2nc(NCc3ccccn3)c3c(-c4ccc(N5CCOCC5)cc4)ccn3n2)c1` [Example 106, 5-(5-(4-morpholinophenyl)-4-(pyridin-2-ylmethylamino)pyrrolo[1,2-f][1,2,4]triazin-2-yl)pyridine-3-sulfonamide], the inhibition at 0.3 µM was 16%.
In the case of `CS(=O)(=O)Nc1cncc(-c2nc(NCc3ccccc3)c3c(-c4ccccc4)ccn3n2)c1` [Example 74, N-(5-(4-(benzylamino)-5-phenylpyrrolo [1,2-f][1,2,4]triazin-2-yl)pyridin-3-yl) methanesulfonamide], the inhibition at 0.3 µM was determined as 96.7%.
Turning to `NS(=O)(=O)c1cccc(-c2nc(NCc3ccccn3)c3c(-c4ccccc4)ccn3n2)c1` [Example 150, 3-(5-phenyl-4-(pyridin-2-ylmethylamino)pyrrolo [1,2-f][1,2,4]triazin-2-yl)benzenesulfonamide], the inhibition at 0.3 µM was found to be 97.5%.
Turning to `CC1(C)OCC(CNC(=O)c2cncc(-c3nc(NCc4ccccc4)c4c(-c5ccccc5)ccn4n3)c2)O1` (centres unmarked) [Example 90, 5-(4-(benzylamino)-5-phenylpyrrolo [1,2-f][1,2,4]triazin-2-yl)-N-((2,2-dimethyl-1,3-dioxolan-4-yl)methyl)nicotinamide], the inhibition at 0.3 µM was 96%.
`Cc1nc(CNc2nc(-c3cncc(S(N)(=O)=O)c3)nn3ccc(-c4ccccc4)c23)cs1` [Example 32, 5-(4-((2-Methylthiazol-4-yl)methylamino)-5-phenylpyrrolo[1,2-f][1,2,4]triazin-2-yl)pyridine-3-sulfonamide]: the inhibition at 0.3 µM turned out to be 99.3%.
For the molecule `NS(=O)(=O)c1cncc(-c2nc(NCc3ccccn3)c3c(-c4ccc(F)cc4)ccn3n2)c1` [Example 6, 5-(5-(4-Fluorophenyl)-4-(pyridin-2-ylmethylamino)pyrrolo[1,2-f][1,2,4]triazin-2-yl)pyridine-3-sulfonamide], the inhibition at 0.3 µM came out at 91.7%.
Consider `Cc1ncc(-c2nc(NCc3ccccn3)c3c(-c4ccccc4)ccn3n2)cc1N` [Example 71, 2-(5-amino-6-methylpyridin-3-yl)-5-phenyl-N-(pyridin-2-ylmethyl)pyrrolo[1,2-f] [1,2,4]triazin-4-amine], for which the inhibition at 0.3 µM turned out to be 89.1%.
The same measure, in the same setting: as for `O=C(O)c1cccc(-c2nc(NCc3ccccn3)c3c(-c4ccccc4)ccn3n2)c1` [Example 87, 3-(5-phenyl-4-(pyridin-2-ylmethylamino)pyrrolo [1,2-f][1,2,4]triazin-2-yl)benzoic acid], the figure is 91%; as for `O=C(O)CCc1cncc(-c2nc(NCc3ccccc3)c3c(-c4ccccc4)ccn3n2)c1` [Example 19, 3-(5-(4-(Benzylamino)-5-phenylpyrrolo[1,2-f][1,2,4]triazin-2-yl)pyridin-3-yl)propanoic acid], 91.3%.
For the molecule `NS(=O)(=O)c1cccc(-c2nc(NCc3ccccc3)c3c(-c4ccccc4)ccn3n2)c1` [Example 149, 3-(4-(benzylamino)-5-phenylpyrrolo[1,2-f] [1,2,4]triazin-2-yl)benzenesulfonamide], the inhibition at 0.3 µM worked out at 95.8%.
Consider `O=C(c1cncc(-c2nc(NCc3ccccc3)c3c(-c4ccccc4)ccn3n2)c1)N(CCO)CCO` [Example 103, 5-(4-(benzylamino)-5-phenylpyrrolo[1,2-f] [1,2,4]triazin-2-yl)-N, N-bis(2-hydroxyethyl) nicotinamide], for which the inhibition at 0.3 µM worked out at 72.2%.
In the case of `N#Cc1cc(-c2nc(NCc3ccccc3)c3c(-c4ccccc4)ccn3n2)ccn1` [Example 92, 4-(4-(benzylamino)-5-phenylpyrrolo [1,2-f][1,2,4]triazin-2-yl) picolinonitrile], the inhibition at 0.3 µM worked out at 88.2%.
